Measured values from publication PMC9181126, “Design, Synthesis, Molecular Docking Analysis and Biological Evaluations of 4-[(Quinolin-4-yl)amino]benzamide Derivatives as Novel Anti-Influenza Virus Agents” (International Journal of Molecular Sciences, 2022).

Legend:
PA-PB1 endonuclease [1] = assay: Experimental PA-PB1 inhibitory activity of literature inhibitors (training and test set); assay type: biochemical, influenza virus; conditions: class of the experimental IC50
PA-PB1 endonuclease [2] = system: PA-PB1 endonuclease; parameters: method as in supplement 1-7; conditions: training and test set compounds collected from literature; ref supplement 1-7; read-out: IC50 value Experimental (PA-PB1 endonuclease inhibitors); cited from earlier work
in vitro [3] = assay type: cell-based, canine; conditions: dog
Procedure: (§1) The 3-(4,5-dimethylthiazol-2-yl)-2,5-diphenyltetrazolium bromide (MTT) method was performed to assess the cytotoxicity of target compounds in MDCK cells and HEK293T cells. Firstly, MDCK cells or HEK293T cells were seeded into the 96-well plate. Then, the media containing test compounds replaced the growth media after 48 h. Incubate MDCK cells or HEK293T cells with test compounds for 72 h at 37 °C in a humidified 5% CO2 incubator. Later, MTT solution (5 mg/mL in PBS) was added into each well and plates were incubated for 4 h at 37 °C. Then, add a solubilization solution to lyse cells. Finally, absorbance was read at 620 nm using an ELISA plate reader (Tecan Sunrise) after 3 h of further incubation at 37 °C. We set the values obtained from the wells treated with only DMSO as 100% of viable cells.

MDCK cells = assay: in vitro; assay type: cell-based, canine; conditions: dog, 72 h
Procedure: as §1

in vitro [4] = assay type: cell-based; conditions: human
Procedure: as §1

HEK293T cells = assay: in vitro; assay type: cell-based; conditions: human, 72 h
Procedure: as §1

[5] = system: influenza virus A/WSN/33 (H1N1); assay: microbe, parasite or virus in culture; assay type: cell-based; conditions: MDCK, 72 h; for inhibition at 12.5 µM / inhibition at 25 µM / inhibition at 50 µM / inhibition at 100 µM: H1N1|WSN, read-out: Antiviral activity in CPE assay; for EC50: read-out: Cytopathic Effect Assay (A/WSN/33, H1N1) EC50
[6] = system: influenza virus A/WSN/33 (H1N1); assay: Plaque inhibition assay in MDCK cells; assay type: cell-based; conditions: MDCK, read-out: Plaque Inhibition Assay (A/WSN/33, H1N1) Inhibition Rate; for inhibition at 100 µM: concentration 100 µM; for inhibition at 25 µM: concentration 25 µM

Structure (SMILES) | Activity scale Experimental (PA-PB1 endonuclease [1]) | IC50 (PA-PB1 endonuclease [2]) | CC50 at 72 h (in vitro [3]) | MDCK cells survival rate (MDCK cells; 12.5 µmol·L−1) | MDCK cells survival rate (MDCK cells; 25 µmol·L−1) | MDCK cells survival rate (MDCK cells; 50 µmol·L−1) | MDCK cells survival rate (MDCK cells; 100 µmol·L−1) | CC50 at 72 h (in vitro [4]) | HEK293T cells survival rate (HEK293T cells; 3.125 µmol·L−1) | HEK293T cells survival rate (HEK293T cells; 6.25 µmol·L−1) | HEK293T cells survival rate (HEK293T cells; 12.5 µmol·L−1) | HEK293T cells survival rate (HEK293T cells; 25 µmol·L−1) | HEK293T cells survival rate (HEK293T cells; 50 µmol·L−1) | HEK293T cells survival rate (HEK293T cells; 100 µmol·L−1) | inhibition at 12.5 µM [5] | inhibition at 25 µM [5] | inhibition at 50 µM [5] | inhibition at 100 µM [5] | EC50 [5] | melting point | other results
O=C(Nc1sc2c(c1C(=O)Nc1ccc(Cl)cc1)CCCCC2)c1ccccc1O [Compound H12] | +++ (+++, IC50 10 to 100 μM (active)) | 18 µM | – | – | – | – | – | – | – | – | – | – | – | – | – | – | – | – | – | – | –
CC1=CC(c2ccccc2)n2nc(NC(=O)c3ccccc3F)nc2N1 (stereo not drawn) [Compound H25] | + (+, IC50 >150 μM (inactive)) | 185 µM | – | – | – | – | – | – | – | – | – | – | – | – | – | – | – | – | – | – | –
CC(c1ccccc1)n1nnnc1C(c1ccsc1)N1CCC(n2c(=O)[nH]c3ccccc32)CC1 (stereo not drawn) [Compound H28] | ++++ (++++, IC50 ≤ 10 μM (most active)) | 7.6 µM | – | – | – | – | – | – | – | – | – | – | – | – | – | – | – | – | – | – | –
Cc1ccc(-c2cc(-c3ccccc3)nc(SCC(=O)Nc3cccc(Cl)c3)c2C#N)cc1 [Compound H35] | + (+, IC50 >150 μM (inactive)) | 180 µM | – | – | – | – | – | – | – | – | – | – | – | – | – | – | – | – | – | – | –
Cc1cc(-c2ccccc2)nc2c(C(=O)Nc3sc4c(c3C(N)=O)CCC4)cnn12 [Compound H15] | +++ (+++, IC50 10 to 100 μM (active)) | 44.8 µM | – | – | – | – | – | – | – | – | – | – | – | – | – | – | – | – | – | – | –
COc1ccccc1OCCNC(=O)c1ccc(Nc2ccnc3ccc(Cl)cc23)cc1 [Compound G25, N-[2-(2-Methoxyphenoxy)ethyl]-4-[(6-chloroquinolin-4-yl)amino]benzamide] | – | – | > 100 µM | 92.58±5.23% | 85.96±5.73% | 86.83±3.19% | 79.32±11.90% | > 100 µM | 104.71±1.87% | 103.50±6.33% | 99.13±1.95% | 65.73±7.64% | 101.61±11.65% | 110.35±11.54% | 26.1 ± 0.67% | 25.7 ± 2.29% | 22.5 ± 1.29% | 22.3 ± 0.4% | > 100 µM | 247.7 to 248.4 °C | inhibition at 100 µM [6]: 0%
COc1ccccc1OCCNC(=O)c1ccc(Nc2ccnc3cc(C)ccc23)cc1 [Compound G21, N-[2-(2-Methoxyphenoxy)ethyl]-4-[(7-methylquinolin-4-yl)amino]benzamide] | – | – | > 100 µM | 83.41±3.67% | 80.18±7.27% | 93.28±9.93% | 88.84±3.59% | > 100 µM | 117.39±1.03% | 103.95±2.65% | 105.56±6.72% | 102.64±2.91% | 110.67±8.55% | 50.09±0.70% | 43 ± 7.31% | 39.8 ± 7.16% | 39.8 ± 6.58% | 50.1 ± 5.45% | > 100 µM | 209.6 to 210.6 °C | inhibition at 100 µM [6]: 11.5%
CCCNC(=O)c1ccc(Nc2ccnc3cc(C(F)(F)F)ccc23)cc1 [Compound G03, N-Propyl-4-{[7-(trifluoromethyl)quinolin-4-yl]amino}benzamide] | – | – | > 100 µM | 107.23±8.32% | 128.70±3.04% | 132.67±1.65% | 144.22±4.46% | > 100 µM | 98.97±9.80% | 89.61±8.87% | 97.78±4.47% | 91.10±7.09% | 84.12±2.84% | 74.22±4.02% | 54.9 ± 4.62% | 56.7 ± 11.7% | 70.3 ± 9.33% | 78.7 ± 8.35% | 10 ± 1.9 µM | 242.5 to 243.4 °C | inhibition at 100 µM [6]: < 10%
O=C(NC1CCC(O)CC1)c1ccc(Nc2ccnc3cc(C(F)(F)F)ccc23)cc1 (stereo not drawn) [Compound G10, N-(4-Hydroxycyclohexyl)-4-{[7-(trifluoromethyl)quinolin-4-yl]amino}benzamide] | – | – | > 100 µM | 84.64±7.10% | 109.11±15.21% | 127.95±8.15% | 110.17±2.79% | > 100 µM | 108.01±12.84% | 104.56±4.92% | 98.12±8.96% | 98.50±8.84% | 99.09±8.41% | 109.24±7.99% | 48.9 ± 2.01% | 58 ± 1.69% | 66.2 ± 2.87% | 63.8 ± 5.18% | 10.4 ± 0.22 µM | 324 to 325 °C | inhibition at 100 µM [6]: 7.41%
O=C(c1ccc(Nc2ccnc3cc(C(F)(F)F)ccc23)cc1)N1CCN(c2ccc(OC(F)(F)F)cc2)CC1 [Compound G15, {4-[4-(Trifluoromethoxy)phenyl]piperazin-1-yl}{4-{[7-(trifluoromethyl)quinolin-4-yl]amino}phenyl}methanone] | – | – | > 100 µM | 92.13±3.70% | 82.80±5.22% | 93.36±4.01% | 76.18±1.27% | > 100 µM | 105.64±1.62% | 104.46±0.45% | 93.38±3.30% | 103.00±3.15% | 89.01±2.08% | 81.59±1.91% | 36.9 ± 0.82% | 39.8 ± 4.98% | 35.3 ± 1.81% | 45.6 ± 5.12% | > 100 µM | 195.9 to 196.4 °C | inhibition at 50 µM ([6]; concentration 50 µM): 61%
Cc1ccc(N2CCN(C(=O)c3ccc(Nc4ccnc5cc(C(F)(F)F)ccc45)cc3)CC2)cc1 [Compound G14, [4-(P-tolyl)piperazin-1-yl]{4-{[7-(trifluoromethyl)quinolin-4-yl]amino}phenyl}methanone] | – | – | > 100 µM | 82.40±6.45% | 91.16±1.34% | 72.26±17.99% | 56.76±2.08% | > 100 µM | 105.78±7.34% | 95.00±7.82% | 89.38±1.59% | 80.67±2.20% | 76.77±5.03% | 77.49±2.55% | 16.43 ± 0.12% | 20.7 ± 3.82% | 23.4 ± 2.31% | 27.9 ± 2.05% | > 100 µM | 192 to 193.8 °C | inhibition at 25 µM [6]: < 10%
CCOc1ccc(N2CCN(C(=O)c3ccc(Nc4ccnc5cc(C(F)(F)F)ccc45)cc3)CC2)cc1 [Compound G18, [4-(4-Ethoxyphenyl)piperazin-1-yl]{4-{[7-(trifluoromethyl)quinolin-4-yl]amino}phenyl}methanone] | – | – | > 100 µM | 112.99±2.36% | 111.55±2.20% | 138.28±6.89% | 104.99±4.01% | > 100 µM | 98.42±9.98% | 87.82±9.55% | 70.43±2.98% | 65.43±6.72% | 72.68±1.96% | 86.90±1.67% | 42.8 ± 0.57% | 39.5 ± 1.72% | 38.7 ± 4.29% | 35.5 ± 9.67% | > 100 µM | 210 to 212.3 °C | inhibition at 25 µM [6]: 16.3%
Cc1ccccc1N1CCN(C(=O)c2ccc(Nc3ccnc4cc(C(F)(F)F)ccc34)cc2)CC1 [Compound G13, [4-(O-tolyl)piperazin-1-yl]{4-{[7-(trifluoromethyl)quinolin-4-yl]amino}phenyl}methanone] | – | – | > 100 µM | 89.39±3.87% | 87.73±16.36% | 92.20±10.16% | 65.91±7.51% | > 100 µM | 99.14±6.42% | 96.29±4.65% | 89.92±2.14% | 88.23±4.29% | 80.60±2.01% | 81.89±2.67% | 27 ± 2.2% | 33.1 ± 4.47% | 36.9 ± 4.41% | 34.3 ± 7.15% | > 100 µM | 194.7 to 195.6 °C | inhibition at 100 µM [6]: < 10%
